Columns and labels:
[1] = molecular target: T1, 5-hydroxytryptamine receptor 1A (Homo sapiens) (UniProt P08908); assay: Selectivity interaction (Eurofins CEREP Diversity Profile (receptors and ion channels)) EUB0000279b HTR1A; conditions: at 10 µM
T1 sequence (whole entry): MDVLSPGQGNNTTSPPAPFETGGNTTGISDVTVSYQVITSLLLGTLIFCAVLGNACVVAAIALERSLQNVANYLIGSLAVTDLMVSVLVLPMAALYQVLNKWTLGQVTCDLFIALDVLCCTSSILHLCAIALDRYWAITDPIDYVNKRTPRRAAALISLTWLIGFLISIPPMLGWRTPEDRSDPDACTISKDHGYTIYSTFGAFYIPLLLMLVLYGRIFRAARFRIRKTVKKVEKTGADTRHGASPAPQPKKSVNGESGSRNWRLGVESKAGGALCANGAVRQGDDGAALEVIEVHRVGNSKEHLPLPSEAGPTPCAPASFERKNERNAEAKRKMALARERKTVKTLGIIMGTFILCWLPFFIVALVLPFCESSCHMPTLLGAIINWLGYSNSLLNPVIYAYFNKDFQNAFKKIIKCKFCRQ

[2] = molecular target: T2, Histone-lysine N-methyltransferase EHMT2 (Homo sapiens) (UniProt Q96KQ7); assay: Selectivity interaction (Methyltransferase screen (Scintillation proximity assays)) EUB0000255b EHMT2
T2 sequence (whole entry): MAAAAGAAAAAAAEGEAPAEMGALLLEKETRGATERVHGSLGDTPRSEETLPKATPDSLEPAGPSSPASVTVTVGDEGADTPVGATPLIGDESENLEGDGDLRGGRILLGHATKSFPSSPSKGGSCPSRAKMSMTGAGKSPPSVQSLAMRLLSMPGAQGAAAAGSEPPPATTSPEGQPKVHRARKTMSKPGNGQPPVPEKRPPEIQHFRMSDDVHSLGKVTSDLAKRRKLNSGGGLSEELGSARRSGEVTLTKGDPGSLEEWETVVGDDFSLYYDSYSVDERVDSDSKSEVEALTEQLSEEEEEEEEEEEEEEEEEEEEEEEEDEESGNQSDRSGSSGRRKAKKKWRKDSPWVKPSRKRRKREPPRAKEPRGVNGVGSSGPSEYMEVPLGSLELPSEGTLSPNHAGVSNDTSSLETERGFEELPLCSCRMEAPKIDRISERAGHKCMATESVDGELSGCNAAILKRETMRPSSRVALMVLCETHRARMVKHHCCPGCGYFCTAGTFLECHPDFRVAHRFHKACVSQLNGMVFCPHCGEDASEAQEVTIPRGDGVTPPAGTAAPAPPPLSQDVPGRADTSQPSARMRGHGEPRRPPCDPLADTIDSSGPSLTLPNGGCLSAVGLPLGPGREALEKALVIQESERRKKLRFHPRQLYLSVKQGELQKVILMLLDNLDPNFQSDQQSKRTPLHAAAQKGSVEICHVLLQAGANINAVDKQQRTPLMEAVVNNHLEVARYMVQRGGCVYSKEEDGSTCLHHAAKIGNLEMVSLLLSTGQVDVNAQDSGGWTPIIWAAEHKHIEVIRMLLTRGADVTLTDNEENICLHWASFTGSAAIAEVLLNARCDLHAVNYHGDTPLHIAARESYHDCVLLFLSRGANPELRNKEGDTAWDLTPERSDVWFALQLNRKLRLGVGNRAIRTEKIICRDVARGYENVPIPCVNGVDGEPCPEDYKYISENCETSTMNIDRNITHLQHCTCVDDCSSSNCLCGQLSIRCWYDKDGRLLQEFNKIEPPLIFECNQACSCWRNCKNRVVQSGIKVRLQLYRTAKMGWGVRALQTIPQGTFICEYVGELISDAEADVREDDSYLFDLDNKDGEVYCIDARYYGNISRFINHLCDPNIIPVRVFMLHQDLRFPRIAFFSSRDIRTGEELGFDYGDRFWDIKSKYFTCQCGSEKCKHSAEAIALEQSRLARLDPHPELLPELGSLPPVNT

[3] = molecular target: RAC-gamma serine/threonine-protein kinase (Homo sapiens, UniProt Q9Y243); assay: Selectivity interaction (KinomeScan (DiscoverX)) EUB0000655a AKT3; conditions: at 10 µM
[4] = molecular target: T3, cGMP-dependent protein kinase 1 (Homo sapiens) (UniProt Q13976); assay: Selectivity interaction (SelectScreen profiling (Invitrogen)) EUB0000607a PRKG1; conditions: at 2 µM
T3 sequence (whole entry): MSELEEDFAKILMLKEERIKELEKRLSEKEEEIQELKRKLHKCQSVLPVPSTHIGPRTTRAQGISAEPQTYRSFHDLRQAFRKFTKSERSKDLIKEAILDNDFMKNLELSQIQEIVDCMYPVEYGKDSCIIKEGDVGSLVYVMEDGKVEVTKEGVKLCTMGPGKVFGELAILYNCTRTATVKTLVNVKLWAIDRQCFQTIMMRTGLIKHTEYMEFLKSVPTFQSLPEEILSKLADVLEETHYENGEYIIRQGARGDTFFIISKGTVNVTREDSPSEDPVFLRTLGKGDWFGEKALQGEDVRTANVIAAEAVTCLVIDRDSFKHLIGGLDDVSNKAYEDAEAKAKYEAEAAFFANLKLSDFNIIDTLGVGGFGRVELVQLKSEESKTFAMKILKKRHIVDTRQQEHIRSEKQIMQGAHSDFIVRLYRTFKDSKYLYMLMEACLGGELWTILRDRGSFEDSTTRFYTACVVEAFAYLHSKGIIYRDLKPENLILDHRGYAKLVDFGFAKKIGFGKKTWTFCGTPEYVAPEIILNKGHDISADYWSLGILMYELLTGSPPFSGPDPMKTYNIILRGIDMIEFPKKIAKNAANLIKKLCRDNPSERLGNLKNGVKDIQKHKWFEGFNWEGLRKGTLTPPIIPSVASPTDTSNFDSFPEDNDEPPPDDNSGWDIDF

[5] = molecular target: Proto-oncogene tyrosine-protein kinase ROS (Homo sapiens) (UniProt P08922); assay: Selectivity interaction (KinomeScan (DiscoverX)) EUB0001619a ROS1; conditions: at 1 µM
[6] = molecular target: Ribosomal protein S6 kinase beta-1 (Homo sapiens, UniProt P23443); assay: Selectivity interaction (ActivX KiNativ screen (kinase selectivity in THP-1 cell lysates)) EUB0000639a RPS6KB1; type: subcellular; conditions: lysate, at 0.04 µM
[7] = molecular target: cAMP-dependent protein kinase catalytic subunit alpha (Homo sapiens, UniProt P17612); assay: Selectivity interaction (KinomeScan (DiscoverX)) EUB0000229b PRKACA; conditions: at 10 µM
[8] = molecular target: Homeodomain-interacting protein kinase 2 (Homo sapiens, UniProt Q9H2X6); assay: Selectivity interaction (KinomeScan (DiscoverX)) EUB0000666a HIPK2; conditions: at 10 µM
[9] = molecular target: Serine/threonine-protein kinase NIM1 (Homo sapiens, UniProt Q8IY84); assay: Selectivity interaction (Kinase panel (Z-LYTE Assay)) EUB0001632a NIM1K; conditions: at 10 µM
Serine/threonine-protein kinase NIM1, sequence (Q8IY84 whole entry): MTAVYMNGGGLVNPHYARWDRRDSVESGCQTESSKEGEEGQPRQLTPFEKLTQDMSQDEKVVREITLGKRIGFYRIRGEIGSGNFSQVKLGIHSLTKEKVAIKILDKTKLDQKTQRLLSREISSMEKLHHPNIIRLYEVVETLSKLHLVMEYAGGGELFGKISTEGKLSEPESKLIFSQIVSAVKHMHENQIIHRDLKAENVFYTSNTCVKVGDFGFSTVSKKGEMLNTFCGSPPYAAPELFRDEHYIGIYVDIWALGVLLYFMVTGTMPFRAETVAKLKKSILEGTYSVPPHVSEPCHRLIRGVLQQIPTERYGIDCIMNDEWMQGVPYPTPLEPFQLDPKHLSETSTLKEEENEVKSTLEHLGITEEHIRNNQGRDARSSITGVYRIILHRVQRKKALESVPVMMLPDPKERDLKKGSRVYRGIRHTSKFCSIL

Ribosomal protein S6 kinase beta-1, sequence (P23443 whole entry, looked up): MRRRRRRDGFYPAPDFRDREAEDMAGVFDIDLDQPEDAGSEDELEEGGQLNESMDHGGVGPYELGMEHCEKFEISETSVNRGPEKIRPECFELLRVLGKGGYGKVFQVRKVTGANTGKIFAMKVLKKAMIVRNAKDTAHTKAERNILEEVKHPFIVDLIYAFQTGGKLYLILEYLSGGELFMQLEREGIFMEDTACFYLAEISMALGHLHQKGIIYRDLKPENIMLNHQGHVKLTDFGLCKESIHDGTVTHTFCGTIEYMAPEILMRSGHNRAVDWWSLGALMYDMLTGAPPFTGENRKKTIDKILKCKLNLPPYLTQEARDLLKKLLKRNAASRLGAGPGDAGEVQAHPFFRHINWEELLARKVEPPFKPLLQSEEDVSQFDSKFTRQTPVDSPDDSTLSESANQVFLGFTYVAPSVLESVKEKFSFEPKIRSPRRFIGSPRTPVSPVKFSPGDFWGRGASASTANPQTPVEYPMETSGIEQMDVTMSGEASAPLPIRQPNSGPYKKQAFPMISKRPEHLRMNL
RAC-gamma serine/threonine-protein kinase, sequence (Q9Y243 whole entry): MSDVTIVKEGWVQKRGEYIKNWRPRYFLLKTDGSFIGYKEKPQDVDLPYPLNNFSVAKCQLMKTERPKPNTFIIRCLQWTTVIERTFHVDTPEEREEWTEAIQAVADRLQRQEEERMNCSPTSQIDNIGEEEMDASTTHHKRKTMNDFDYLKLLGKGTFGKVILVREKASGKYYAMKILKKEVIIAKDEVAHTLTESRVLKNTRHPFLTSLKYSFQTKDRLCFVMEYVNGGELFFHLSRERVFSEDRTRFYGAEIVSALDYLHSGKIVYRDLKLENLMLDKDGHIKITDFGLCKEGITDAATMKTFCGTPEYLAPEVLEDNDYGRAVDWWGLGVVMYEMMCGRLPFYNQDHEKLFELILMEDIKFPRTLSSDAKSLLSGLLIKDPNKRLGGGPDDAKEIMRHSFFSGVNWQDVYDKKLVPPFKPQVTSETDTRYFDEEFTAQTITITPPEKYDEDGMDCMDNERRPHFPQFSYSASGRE
Proto-oncogene tyrosine-protein kinase ROS (Homo sapiens), sequence (P08922 whole entry): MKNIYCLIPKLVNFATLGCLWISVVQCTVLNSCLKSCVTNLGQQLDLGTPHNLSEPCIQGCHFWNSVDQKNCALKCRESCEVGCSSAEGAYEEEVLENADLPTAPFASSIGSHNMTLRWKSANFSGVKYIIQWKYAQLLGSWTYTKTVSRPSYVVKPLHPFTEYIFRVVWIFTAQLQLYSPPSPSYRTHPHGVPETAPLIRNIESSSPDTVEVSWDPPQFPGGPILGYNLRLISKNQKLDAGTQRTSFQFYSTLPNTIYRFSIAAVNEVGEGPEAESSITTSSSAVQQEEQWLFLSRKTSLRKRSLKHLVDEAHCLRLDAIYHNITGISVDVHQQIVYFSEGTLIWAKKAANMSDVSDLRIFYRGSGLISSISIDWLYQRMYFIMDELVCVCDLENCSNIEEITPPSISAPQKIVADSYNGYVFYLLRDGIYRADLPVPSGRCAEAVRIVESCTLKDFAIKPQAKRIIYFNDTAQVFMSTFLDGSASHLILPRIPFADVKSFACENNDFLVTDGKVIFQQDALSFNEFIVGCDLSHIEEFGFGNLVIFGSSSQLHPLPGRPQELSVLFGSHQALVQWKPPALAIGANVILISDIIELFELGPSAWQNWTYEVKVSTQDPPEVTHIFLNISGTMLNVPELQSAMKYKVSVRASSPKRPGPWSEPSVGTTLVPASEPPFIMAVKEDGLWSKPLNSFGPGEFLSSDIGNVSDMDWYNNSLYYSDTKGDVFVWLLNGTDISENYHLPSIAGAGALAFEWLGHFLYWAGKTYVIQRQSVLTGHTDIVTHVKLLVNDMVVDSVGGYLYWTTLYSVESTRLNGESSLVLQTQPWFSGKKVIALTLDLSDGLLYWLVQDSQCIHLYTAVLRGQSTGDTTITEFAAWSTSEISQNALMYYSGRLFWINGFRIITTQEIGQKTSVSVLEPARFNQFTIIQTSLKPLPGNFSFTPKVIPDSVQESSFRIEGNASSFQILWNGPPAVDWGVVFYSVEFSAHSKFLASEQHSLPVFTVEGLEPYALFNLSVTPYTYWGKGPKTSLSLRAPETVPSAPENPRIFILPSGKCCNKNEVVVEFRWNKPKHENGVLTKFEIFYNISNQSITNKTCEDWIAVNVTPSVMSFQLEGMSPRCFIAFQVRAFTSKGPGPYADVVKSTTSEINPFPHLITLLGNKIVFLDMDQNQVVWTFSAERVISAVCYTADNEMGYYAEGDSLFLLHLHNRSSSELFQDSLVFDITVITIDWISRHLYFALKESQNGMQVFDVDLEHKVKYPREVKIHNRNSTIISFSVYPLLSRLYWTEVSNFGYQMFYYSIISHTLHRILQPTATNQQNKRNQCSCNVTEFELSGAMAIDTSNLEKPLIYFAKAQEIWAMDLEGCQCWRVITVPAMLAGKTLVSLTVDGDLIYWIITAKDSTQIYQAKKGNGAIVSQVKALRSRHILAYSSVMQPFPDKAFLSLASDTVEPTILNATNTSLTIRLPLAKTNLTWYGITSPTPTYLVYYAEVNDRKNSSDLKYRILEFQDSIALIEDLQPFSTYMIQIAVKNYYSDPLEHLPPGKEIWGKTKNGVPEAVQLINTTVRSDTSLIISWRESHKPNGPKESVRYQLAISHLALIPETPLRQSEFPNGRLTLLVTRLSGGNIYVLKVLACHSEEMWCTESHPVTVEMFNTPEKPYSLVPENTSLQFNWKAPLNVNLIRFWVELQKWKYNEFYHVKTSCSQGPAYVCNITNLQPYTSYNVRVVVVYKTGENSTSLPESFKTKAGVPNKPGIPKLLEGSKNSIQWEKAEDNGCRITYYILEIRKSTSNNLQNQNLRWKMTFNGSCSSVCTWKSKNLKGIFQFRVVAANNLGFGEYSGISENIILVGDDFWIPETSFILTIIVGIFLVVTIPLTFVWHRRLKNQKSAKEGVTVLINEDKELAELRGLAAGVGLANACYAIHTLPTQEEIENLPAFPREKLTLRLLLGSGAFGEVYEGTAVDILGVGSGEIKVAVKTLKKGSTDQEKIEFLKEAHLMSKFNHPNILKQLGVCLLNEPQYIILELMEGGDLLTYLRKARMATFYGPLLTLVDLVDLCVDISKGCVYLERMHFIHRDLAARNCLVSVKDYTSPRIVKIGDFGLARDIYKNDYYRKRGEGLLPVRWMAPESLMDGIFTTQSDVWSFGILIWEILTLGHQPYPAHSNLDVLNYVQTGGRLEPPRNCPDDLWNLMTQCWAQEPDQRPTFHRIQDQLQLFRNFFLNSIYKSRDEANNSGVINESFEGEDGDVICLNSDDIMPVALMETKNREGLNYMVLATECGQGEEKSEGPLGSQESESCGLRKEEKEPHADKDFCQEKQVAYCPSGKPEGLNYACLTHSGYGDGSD
Homeodomain-interacting protein kinase 2, sequence (Q9H2X6 whole entry, looked up): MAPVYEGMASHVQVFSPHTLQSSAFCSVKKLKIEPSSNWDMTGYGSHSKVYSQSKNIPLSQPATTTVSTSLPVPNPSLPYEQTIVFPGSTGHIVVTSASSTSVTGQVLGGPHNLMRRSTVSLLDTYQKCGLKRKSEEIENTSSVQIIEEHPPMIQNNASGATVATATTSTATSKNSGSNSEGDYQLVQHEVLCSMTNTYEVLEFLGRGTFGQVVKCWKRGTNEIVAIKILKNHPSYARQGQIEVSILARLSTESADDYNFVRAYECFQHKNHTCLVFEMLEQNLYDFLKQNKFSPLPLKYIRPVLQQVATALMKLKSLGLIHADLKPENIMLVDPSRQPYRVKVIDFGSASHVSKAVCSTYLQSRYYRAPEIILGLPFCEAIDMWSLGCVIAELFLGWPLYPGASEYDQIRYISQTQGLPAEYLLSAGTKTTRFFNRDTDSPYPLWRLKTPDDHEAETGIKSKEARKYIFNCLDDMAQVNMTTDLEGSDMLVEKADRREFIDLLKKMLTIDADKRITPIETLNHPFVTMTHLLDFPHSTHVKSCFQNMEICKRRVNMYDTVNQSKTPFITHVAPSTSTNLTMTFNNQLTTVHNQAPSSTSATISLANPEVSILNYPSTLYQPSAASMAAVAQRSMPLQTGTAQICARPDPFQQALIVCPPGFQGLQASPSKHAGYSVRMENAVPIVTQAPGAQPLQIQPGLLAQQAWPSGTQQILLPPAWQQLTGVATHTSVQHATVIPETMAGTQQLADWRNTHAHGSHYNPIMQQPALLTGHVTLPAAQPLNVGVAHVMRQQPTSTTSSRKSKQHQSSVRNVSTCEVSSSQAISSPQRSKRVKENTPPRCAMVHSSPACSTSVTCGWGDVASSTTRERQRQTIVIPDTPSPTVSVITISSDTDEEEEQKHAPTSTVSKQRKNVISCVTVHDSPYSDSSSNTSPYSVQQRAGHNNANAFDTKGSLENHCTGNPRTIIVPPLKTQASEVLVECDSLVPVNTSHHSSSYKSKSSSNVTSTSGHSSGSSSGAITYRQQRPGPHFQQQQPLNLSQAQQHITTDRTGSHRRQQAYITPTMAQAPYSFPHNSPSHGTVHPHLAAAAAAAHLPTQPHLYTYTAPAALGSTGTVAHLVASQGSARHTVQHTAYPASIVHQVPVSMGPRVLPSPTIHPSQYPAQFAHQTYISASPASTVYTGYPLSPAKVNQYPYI

**Q.** `CC(=O)c1cc(-c2ccccc2OCC2CC2)c2ncccn12` was tested. Which % of control [1] did it give?
**A.** Its % of control is 83%.

**Q.** For `COCCN1CCC(c2cc(CN(C)C(=O)c3cccc(Oc4ccccc4)c3)ccn2)CC1`, which % activity ([2]; at 1 µM) is on record?
**A.** Its % activity is over 95%.

**Q.** And the % activity ([2]; at 10 µM)?
**A.** The % activity was over 90%.

**Q.** `CN(C)CCOc1ccc(-c2nc(-c3ccncc3)c(-c3ccc4c(c3)CC/C4=N\O)[nH]2)cc1` was tested. Which % of control [3] did it give?
**A.** The % of control was 97%.

**Q.** Which % of inhibition [4] does the source give for `CNC(=O)Nc1ccc(-c2nc(N3CC4CCC(C3)O4)c3cnn(C4CCC5(CC4)OCCO5)c3n2)cc1` here?
**A.** Its % of inhibition is 1%.

**Q.** With `N#Cc1cccc(-c2c[nH]c3ncnc(N4CCOCC4)c23)c1` as the compound, how does the % of control [5] read?
**A.** Its % of control is 90%.

**Q.** How did the % of inhibition [6] turn out when `CC[C@@H]1[C@H](F)C(=O)N[C@@H]1COc1nccc2cc(C(N)=O)c(OC)cc12` [ZIMLOVISERTIB] was run?
**A.** The % of inhibition was 9.9%.

**Q.** With `COc1cc(N(C)c2ccnc3ccc(C(F)(F)F)cc23)cc(OC)c1OC` as the compound, how does the % binding [7] read?
**A.** Its % binding is 100%.

**Q.** Which % of control [8] does the source give for `O=C(NOC[C@H](O)CO)c1ccc(F)c(F)c1Nc1ccc(I)cc1F` here?
**A.** Its % of control is 100%.

**Q.** With `Cn1cc(-n2cnc3c(NCc4nc5cc(Cl)c(Cl)cc5[nH]4)nc(N4CCOCC4)nc32)cn1` as the compound, how does the % of control [9] read?
**A.** Its % of control is 4.54%.

From ChEMBL document CHEMBL5465560, “Selectivity Literature for EUbOPEN Chemogenomic Library” (2024)
